Patent publication US12257243B2, “5-hydroxy-7-oxabicyclo[2.2.1]heptane-2-carboxamide derivatives for inducing chondrogenesis for treating joint damage” (NOVARTIS AG, priority 2018, dated 2025)

System: ALP in normal human articular chondrocytes (NHACs)
Assay: Alkaline Phosphatase (ALP) activity assay (staining and quantitation) in NHACs, prevention of chondrocyte hypertrophy
Format: cell-based
Details: Chondrocyte, 288 h, human IL-1 beta 10 ng/mL, 12 days; for IC50: Fast Blue RR staining, high content imaging, read-out: ALP in NHAC IC50; for Emax: value in parentheses, read-out: ALP in NHAC (% Efficacy)
Procedure: The compounds of the present invention were evaluated in the Alkaline Phosphatase (ALP) activity assay to determine the ability of the compounds to prevent chondrocyte hypertrophy in normal human articular chondrocytes (NHACs).
Normal human articular chondrocytes (NHACs) were purchased from PromoCell (Heidelberg, Germany) and grown in Chondrocyte Growth Medium (CGM; Lonza, Walkersville, Md.).
NHACs were expanded in Chondrocyte Growth Medium (CGM) from Lonza until they reached a 60-80% confluency. To initiate differentiation, 7,500 cells were plated/well with indicated test compound dose in 384-well Cell Carrier Ultra plates (Perkin Elmer) with DMEM (SH30022—HyClone) containing 10% FBS (35-015-CV—Corning), 1% Pen/Strep antibiotics (SV30010—HyClone), and 1% Normocin (50 mg/mL—InvivoGen). Cells with test compounds were incubated at 37° C., 5% CO2 for 5 hours and then added human IL-1 beta (AF-200-1B—Peprotech) to each well at a final concentration of 10 ng/mL and incubated at 37° C., 5% CO2 for 12 days.
To detect the presence of hypertrophic cells, NHACs were fixed with 4% paraformaldehyde and Hoechst 33342 (Invitrogen) dye for 30 minutes, rinsed in PBS, then stained with Fast Blue RR Salt (F0500—Sigma) with Naphthol AS-MX Phosphate Alkaline Solution, 0.25% (855—Sigma-Aldrich).
The staining was imaged by fluorescent microscopy, using the 561 nm wavelength, and/or quantified by high content imaging with the Image press Confocal (Molecular Devices, Sunnyvale, Calif.). Data analyses were performed with a customized multiwavelength cell-scoring application.

| Structure (SMILES) | IC50 [µM] | Emax [%] |
| --- | --- | --- |
| COc1ccc(C(F)(F)F)cc1NC(=O)[C@@H]1[C@@H](c2cccc(C(F)(F)F)c2)[C@H]2O[C@@H]1C[C@@H]2O (racemic) [Example 22, rac-(1R,2R,3S,4R,5S)-5-hydroxy-N-(2-methoxy-5-(trifluoromethyl)phenyl-3-(3-(trifluoromethyl)phenyl)-7-oxabicyclo[2.2.1]heptane-2-carboxamide] | 27 | 75 |
| O=C(Nc1ccc(N2CCOCC2)c(C(F)(F)F)c1)[C@@H]1[C@@H](c2cccc(C(F)(F)F)c2)[C@H]2O[C@@H]1C[C@@H]2O (racemic) [Example 23, rac-(1R,2R,3S,4R,5S)-5-hydroxy-N-(4-morpholino-3-(trifluoromethyl)phenyl)-3-(3-(trifluoromethyl)phenyl)-7-oxabicyclo[2.2.1]heptane-2-carboxamide] | 17 | 108 |
| CCOc1ccc(NC(=O)[C@@H]2[C@@H](c3cccc(C(F)(F)F)c3)[C@H]3O[C@@H]2C[C@@H]3O)cc1C(F)(F)F (racemic) [Example 24, rac-(1R,2R,3S,4R,5S)—N-(4-ethoxy-3-trifluoromethyl)phenyl)-5-hydroxy-3-(3-(trifluoromethyl)phenyl)-7-oxabicyclo[2.2.1]heptane-2-carboxamide] | 14 | 108 |
| O=C(Nc1ccc(C(F)(F)F)c(Cl)n1)[C@@H]1[C@@H](c2cccc(C(F)(F)F)c2)[C@H]2O[C@@H]1C[C@@H]2O (racemic) [Example 25, rac-(1R,2R,3S,4R,5S)—N-(6-chloro-5-(trifluoromethyl)pyridin-2-yl)-5-hydroxy-3-(3-(trifluoromethyl)phenyl)-7-oxabicyclo[2.2.1]heptane-2-carboxamide] | 2.9 | 112 |
| O=C(Nc1ccc(C(F)(F)F)cn1)[C@@H]1[C@@H](c2cccc(C(F)(F)F)c2)[C@H]2O[C@@H]1C[C@@H]2O (racemic) [Example 26, rac-(1R,2R,3S,4R,5S)-5-hydroxy-3-(3-(trifluoromethyl)phenyl)-N-(5-(trifluoromethyl)pyridin-2-yl-7-oxabicyclo[2.2.1]heptane-2-carboxamide] | 11 | 112 |
| O=C(Nc1ccc(C(F)(F)F)nc1)[C@@H]1[C@@H](c2cccc(C(F)(F)F)c2)[C@H]2O[C@@H]1C[C@@H]2O (racemic) [Example 27, rac-(1R,2R,3S,4R,5S)-5-hydroxy-3-(3-(trifluoromethyl)phenyl)-N-(6-(trifluoromethyl)pyridin-3-yl)-7-oxabicyclo[2.2.1]heptane-2-carboxamide] | > 30 | 38 |
| Cc1cc(NC(=O)[C@@H]2[C@@H](c3cccc(C(F)(F)F)c3)[C@H]3O[C@@H]2C[C@@H]3O)cnc1C(F)(F)F (racemic) [Example 28, rac-(1R,2R,3S,4R,5S)-5-hydroxy-N-(5-methyl-6-(trifluoromethyl)pyridin-3-yl)-3-(3-(trifluoromethyl)phenyl)-7-oxabicyclo[2.2.1]heptane-2-carboxamide] | 6 | 98 |
| Cn1cc([C@H]2[C@H]3O[C@H](C[C@@H]3O)[C@@H]2C(=O)Nc2ccc(C(F)(F)F)cc2)c(C(F)(F)F)n1 (racemic) [Example 29, rac-(1R,2R,3S,4R,5S)-5-hydroxy-3-(1-methyl-3-trifluoromethyl)-1H-pyrazol-4-yl)-N-(4-(trifluoromethyl)phenyl)-7-oxabicyclo[2.2.1]heptane-2-carboxamide] | 11 | 72 |
| Cc1cc(NC(=O)[C@@H]2[C@@H](c3cn(C)nc3C(F)(F)F)[C@H]3O[C@@H]2C[C@@H]3O)cc(C(F)(F)F)c1 (racemic) [Example 30, rac-(1R,2R,3S,4R,5)-5-hydroxy-3-(1-methyl-3-(trifluoromethyl)-1H-pyrazol-4-yl)-N-(3-methyl-5-(trifluoromethyl)phenyl)-7-oxabicyclo[2.2.1]heptane-2-carboxamide] | 7.2 | 81 |
